Measurements taken from patent publication US6875843B2, “Prevention of diabetes and prolongation of the honeymoon phase of diabetes by administration of GnRH antagonists” (Children's Mercy Hospital, priority 2001, dated 2005).

Assays:
Assay type in all cases: in vivo, mouse
NOD mice [1] = experiment: Serum total immunoglobulin G in gonadectomized NOD mice (single radial immunodiffusion); details: 100 μg s.c. six times weekly, 8 weeks of treatment, vs vehicle (FIG. 3)
Source text: (§1) Mice. The well-characterized NOD mice were used throughout the study. Male and female mice were purchased from the Jackson Laboratory (Bar Harbor, Me.). These mice are art-recognized animal models used in diabetes research. (Makino et al., (1980) Breeding of a Non-obese Diabetic Strain of Mice. Exp Anim, 29, 1-13; Miyazaki, A. T., et al, (1985) Predominance of T Lymphocytes in Pancreatic Islets and Spleen in Prediabetic Non-Obese Diabetic (Nod) Mice: a Longitudinal Study. Clin Exp immunol, 60, 622-630)
Experimental Design. Both intact and gonadectomized mice (GDX) were used. […] To compare the effects of GnRH agonists and antagonists, gonadectomized animals were randomized at 14 to 18 days of age and begun immediately in one of the following main treatment groups: GnRH agonist; Antide; vehicle. One group of gonadectomized males was treated with Nal-Glu, as an additional control. […]
Clinical tests. Total immunoglobulin G concentrations were measured by single radial immunodiffusion assay using immunodiffusion plates containing monospecific antiserum for IgG (ICN Biomedicals, Inc., Costa Mesa, Calif. ). […] Glycosuria was scored by comparison to reference standards on a scale of 0 to 4 as follows: negative=0; 30 mg/dL=1; 100 mg/dL=2; 300 mg/dL=3;>1000 mg/dL=4.
Statistics. […] Percentages of mice remaining diabetes-free was assessed by Mantel-Haenszel methodology. […]

NOD mice [2] = experiment: Incidence and onset of diabetes in gonadectomized male NOD mice; details: for Timing of onset of diabetes: gonadectomized NOD mice; for Timing of onset of diabetes / Incidence of diabetes: 100 μg s.c. six times weekly (FIG. 4)
Source text: as §1
Experimental Design. Both intact and gonadectomized mice (GDX) were used. […] To compare the effects of GnRH agonists and antagonists, gonadectomized animals were randomized at 14 to 18 days of age and begun immediately in one of the following main treatment groups: GnRH agonist; Antide; vehicle. One group of gonadectomized males was treated with Nal-Glu, as an additional control.
(§2) Gonadectomy. Males were gonadectomized via a single scrotal incision under pentobarbital anesthesia.
(§3) Injections. GnRH (native decapeptide) was purchased from Bachem (Bubendorf, Switzerland). GnRH antagonist Antide (Acetyl-β-[2-Naphthyl]-D-Ala-D-p-Chloro-Phe-β-[3-Pyridyl]-D-Ala-Ser-Nε-[Nicotinoyl]-Lys-Nε-[Nicotinoyl]-D-Lys-Leu-Nε-[Isopropyl]-Lys-Pro-D-Ala-NH2) was supplied by Contraceptive Development Branch (NICHHD) of the National Institutes of Health and Ares-Serono (Randolph, Mass.). A second GnRH antagonist, Nal-Glu (acetyl-D2Nal1, D4CIPhe2, D3Pal3, Arg5, Dglu6 (AA), DAla10) was supplied by NICHHD and was used on a subset of mice. All references to GnRH agonist refer to the native decapeptide. Animals were injected subcutaneously in the nape of the neck six times weekly, in the a.m., with 100 μg of GnRH or GnRH antagonist in 100 μl of vehicle consisting of 50% propylene glycol and 50% double distilled water.
Clinical tests. Total immunoglobulin G concentrations were measured by single radial immunodiffusion assay using immunodiffusion plates containing monospecific antiserum for IgG (ICN Biomedicals, Inc., Costa Mesa, Calif. ). Serum glucoses were checked weekly using a One Touch Fast Take meter (Lifescan, Milpitas, Calif.) Urine was tested for glucose by urinalysis reagent strips (Miles, Inc., Elkhart Ind.). Glycosuria was scored by comparison to reference standards on a scale of 0 to 4 as follows: negative=0; 30 mg/dL=1; 100 mg/dL=2; 300 mg/dL=3;>1000 mg/dL=4.
Statistics. Serum immunoglobulin measurements were compared by two-tailed Student's paired t-tests. Percentages of mice remaining diabetes-free was assessed by Mantel-Haenszel methodology. (Mantel, N. (1966) Evaluation of Survival Data and Two New Rank Order Statistics Arising in its Consideration. Cancer Chemother Rep, 50, 163-70)

NOD mice [3] = experiment: Lymphocytic infiltration of islet cells, pancreatic histology in gonadectomized NOD mice; details: 100 μg s.c. six times weekly, 3, 5, 7, 9 and 11 weeks, vs vehicle (FIG. 5)
Protocol: In this example, gonadectomized NOD mice were treated with either the GnRH antagonist Antide or the vehicle (50% propylene glycol and 50% double distilled water) to determine differences in the rate of lymphocytic infiltration of islet cells.
Mice. The well-characterized NOD mice were used throughout the study. Male and female mice were purchased from the Jackson Laboratory (Bar Harbor, Me.). Again, these mice are art-recognized animal models used in diabetes research.
as §2
Injections. The mice were injected subcutaneously in the nape of the neck six times weekly, in the a.m., with 100 μg of the GnRH antagonist in 100 μl of vehicle consisting of 50% propylene glycol and 50% double distilled water.
Pancreatic Histology. Three mice per treatment group were euthanized at 3, 5, 7, 9, and 11 weeks. Pancreatic histologic sections were stained by hemotoxillin and eosin. Ten tissue sections per treatment group were examined. All […] in each tissue section were scored with regard to the presence or absence of lymphocytic infiltrates.

NOD mice [4] = experiment: Serum prolactin by radioimmunoassay in NOD mice; details: 100 μg s.c. six times weekly
Source text: as §3
Sera. Sera were collected from blood obtained every six weeks by retroorbital puncture after light isofluorane anesthesia.
Hormone measurements. Serum testosterone concentrations were measured by RIA using a commercial kit (Coat-A-Count, Diagnostic Products Corporation, Los Angeles, Calif.). Serum LH and prolactin were measured by radioimmunoassay (RIA) using previously described methods. […]

Row | Substance | Serum IgG concentrations (NOD mice [1]) | Timing of onset of diabetes (NOD mice [2]) | Incidence of diabetes (NOD mice [2]; gonadectomized male NOD mice) | Percentage of treated mice diabetic (NOD mice [2]; gonadectomized male NOD mice, 100 μg s.c. six times weekly, at 60 weeks of age, compared to vehicle (FIG. 4)) | Lymphocytic infiltration of islets (percentages of islets infiltrated) (NOD mice [3]) | Serum prolactin levels (NOD mice [4])
1 | Acetyl-β-[2-Naphthyl]-D-Ala-D-p-Chloro-Phe-β-[3-Pyridyl]-D-Ala-Ser-Nε-[Nicotinoyl]-Lys-Nε-[Nicotinoyl]-D-Lys-Leu-Nε-[Isopropyl]-Lys-Pro-D-Ala-NH2 [Antide] | reduced serum IgG concentrations to levels seen in sham operated mice | delayed onset of diabetes | significantly decreased | 0% | statistically significant reduction in lymphocytic infiltration | neither agonist nor antagonist treatment altered serum prolactin levels
2 | GnRH agonist: GnRH native decapeptide purchased from Bachem; all references to GnRH agonist refer to the native decapeptide (QHWSYGLRPG; Gonadoliberin-1; UniProt P01148 24-33, looked up) | further increased IgG levels compared to vehicle | accelerated | significantly increased |  |  | neither agonist nor antagonist treatment altered serum prolactin levels
